Measurements published in patent US4088772A, “Methanodibenzocycloheptapyrroles” (E. I. Du Pont de Nemours and Company, priority 1975, dated 1978).
Counter-ions that a name gives are not always drawn. Like-named read-outs stand apart in the source and are kept apart here.

What was measured:
[1] = test system: phenylquinone-induced writhing; test: Phenylquinone writhing test (analgesia); type: in vivo, mouse (Carworth CF1 S female); conditions: Mus musculus
Text: This mouse test is predictive of analgesic response in humans. [E. Siegmund, R. Cadmus and G. Lee, Proc. Soc.
ED50 values were obtained graphically from the data.

[2] = in vivo; conditions: mouse, in vivo, po
[3] = test system: female white mice; test: animal or person; conditions: Mus musculus, po, oral, mice
[4] = read-out: Catatonia ED50, Table 1
[5] = read-out: Exploratory Loss Visual ED50, Table 1
[6] = read-out: Muscle Tone ED50, Table 1
[7] = read-out: Reflexes Grip ED50, Table 1
[8] = read-out: Reflexes Lift ED50, Table 1
[9] = read-out: Reflexes Pinna ED50, Table 1
[10] = read-out: Catatonia ED50, Table III
[11] = read-out: Exploratory Loss Visual ED50, Table III
[12] = read-out: Muscle Tone ED50, Table III
[13] = read-out: Ptosis ED50, Table III
[14] = read-out: Reflexes Grip ED50, Table III
[15] = read-out: Reflexes Lift ED50, Table III
[16] = read-out: Reflexes Pinna ED50, Table III

Compound | ED50 ([1]; po, Table 1, mice) [mg/kg] | ED50 [2] [mg/kg] | LD50 at 24 h [2] [mg/kg] | ED50 [3, 4] [mg/kg] | ED50 [3, 5] [mg/kg] | ED50 [3, 6] [mg/kg] | ED50 ([3]; read-out: Ptosis ED50, Table 1) [mg/kg] | ED50 [3, 7] [mg/kg] | ED50 [3, 8] [mg/kg] | ED50 [3, 9] [mg/kg] | ED50 ([1]; po, Table III, mice) [mg/kg] | ED50 [3, 10] [mg/kg] | ED50 [3, 11] [mg/kg] | ED50 [3, 12] [mg/kg] | ED50 [3, 13] [mg/kg] | ED50 [3, 14] [mg/kg] | ED50 [3, 15] [mg/kg] | ED50 [3, 16] [mg/kg] | ED50 ([1]; Table 1, oral, mice) [mg/kg] | ED50 ([2]; Tremors ED50, Table 1, mice) [mg/kg]
C1=C[C@@H]2C[C@H]1C[C@H]2CN1C[C@@H]2c3ccccc3[C@@H]3C[C@@]2(C1)c1ccccc13 (relative stereo) [Example 37, 2-(2-Exo-bicyclo[2.2.1]hept-5-enylmethyl)-2,3,8,12b-tetrahydro-1H-3a,8-methanodibenzo[3,4:6,7]cyclohepta[1,2-c]pyrrole] | 2.4 | > 324 | 300 | 7 | 7 | 4 | ≤ 4 | 200 | 12 | 20 |  |  |  |  |  |  |  |  |  | 
CCC(CC)CN1CC2c3ccccc3C3CC2(C1)c1ccccc13 (stereo not shown) [Example 17, 2-(2-Ethylbutyl)-2,3,8,12b-tetrahydro-1H-3a,8-methanodibenzo[3,4:6,7]cyclohepta[1,2-c]pyrrole] | 48 | > 324 | > 324 | 36 | 200 | 100 | 100 | > 324 | 200 | 200 |  |  |  |  |  |  |  |  |  | 
CC(C1CCCC1)N1C[C@@H]2c3ccccc3[C@@H]3C[C@@]2(C1)c1ccccc13 (stereo partly shown) [Example 50, 2-(1-Cyclopentylethyl)-2,3,8,12b-tetrahydro-1H-3a,8-methanodibenzo[3,4:6,7]cyclohepta[1,2-c]pyrrole] | 23 | > 324 | > 324 | 20 | 20 | 36 | 60 | 300 | 60 | 36 |  |  |  |  |  |  |  |  |  | 
CC(O)c1ccc2c(c1)[C@]13C[C@H]2c2ccccc2[C@H]1CN(CC1CCCC1)C3 (stereo partly drawn) [Example 67, 5-(α-Hydroxyethyl)-2-cyclopentylmethyl-2,3,8,12b-tetrahydro-1H-3a,8-methanodibenzo[3,4:6,7]cyclohepta[1,2-c]-pyrrole Hydrochloride] |  |  | > 450 |  |  |  |  |  |  |  | 3.4 | 5 | 5 | 6 | 3.6 | 187 | 21 | 5.6 |  | 
c1ccc2c(c1)[C@@H]1C[C@@]3(CN(C[C@H]4C[C@H]5CC[C@@H]4C5)C[C@H]23)c2ccccc21 (relative stereo) [Example 36, 2-(2-Endo-bicyclo[2.2.1]heptylmethyl)-2,3,8,12b-tetrahydro-1H-3a,8-methanodibenzo[3,4:6,7]cyclohepta[1,2-c]pyrrole] | 9.8 | > 324 | > 324 | 60 | 60 | 60 | 20 | > 324 | 60 | 100 |  |  |  |  |  |  |  |  |  | 
O=Cc1ccc2c(c1)[C@]13C[C@H]2c2ccccc2[C@H]1CN(CC1CCCC1)C3 (relative stereo) [Example 69, 5-Formyl-2-cyclopentylmethyl-2,3,8,12b-tetrahydro-1H-3a,8-methanodibenzo[3,4:6,7]cyclohepta[1,2-c]pyrrole Hydrochloride] |  |  | > 324 |  |  |  |  |  |  |  | < 130 | 60 | 60 | 60 | 36 | > 324 | 60 | 20 |  | 
c1ccc2c(c1)C1CC3(CN(CC4CC4)CC23)c2ccccc21 (stereo not shown) [Example 6, 2-Cyclopropylmethyl-2,3,8,12b-tetrahydro-1H-3a,8-methanodibenzo[3,4:6,7]cyclohepta[1,2-c]pyrrole] |  |  | 300 | 20 | 20 | 12 | 20 | 100 | 20 | 7 |  |  |  |  |  |  |  |  | 4.5 | 100
c1ccc2c(c1)[C@@H]1C[C@@]3(CN(CC4CCCC4)C[C@H]23)c2ccccc21 (relative stereo) [Cyclopentylmethyl (free base), 2-Cyclopentylmethyl-2,3,8,12b-tetrahydro-1H-3a,8-methanodibenzo[3,4:6,7]cyclohepta[1,2-c]pyrrole] | < 130 |  | > 324 | 7 | < 3 | < 3 | < 3 | 260 | 4.5 | < 3 |  |  |  |  |  |  |  |  |  | 
OCc1ccc2c(c1)[C@]13C[C@H]2c2ccccc2[C@H]1CN(CC1CCCC1)C3 (relative stereo) [Example 86, 2-Cyclopentylmethyl-2,3,8,12b-tetrahydro-1H-3a,8-methanodibenzo[3,4:6,7]cyclohepta[1,2-c]pyrrole-5-methanol Hydrochloride] |  |  | > 324 |  |  |  |  |  |  |  | 26 | 60 | 12 | 60 | 7 | 200 | 36 | 20 |  | 
C=C1CC(CN2CC3c4ccccc4C4CC3(C2)c2ccccc24)C1 (stereo not shown) [Example 20, 2-(3-Methylenecyclobutylmethyl)-2,3,8,12b-tetrahydro-1H-3a,8-methanodibenzo[3,4:6,7]cyclohepta[1,2-c]pyrrole] | 8.2 | > 324 | > 324 | 13 | 21 | 15 | 11 | 362 | 21 | 24 |  |  |  |  |  |  |  |  |  | 
c1ccc([C@@H]2C[C@H]2CN2CC3c4ccccc4C4CC3(C2)c2ccccc24)cc1 (relative stereo) [Example 55, 2-(trans-2-Phenylcyclopropylmethyl)-2,3,8,12 b-tetrahydro-1H-3a,8-methanodibenzo[3,4:6,7]cyclohepta[1,2-c]pyrrole] | 48 | > 324 | > 324 | 200 | 100 | 100 | 36 | > 324 | 200 | 200 |  |  |  |  |  |  |  |  |  | 
c1ccc2c(c1)C1CC3(CN(CC4CCCCCC4)CC23)c2ccccc21 (stereo not shown) [Example 32, 2-Cycloheptylmethyl-2,3,8,12b-tetrahydro-1H-3a,8-methanodibenzo[3,4:6,7]cyclohepta[1,2-c]pyrrole] | 2.9 | > 324 | > 324 | 12 | 7 | 36 | < 4 | 200 | 20 | 60 |  |  |  |  |  |  |  |  |  | 
c1ccc(CCN2C[C@@H]3c4ccccc4[C@@H]4C[C@@]3(C2)c2ccccc24)cc1 (relative stereo) [Example 39, 2-(2-Phenylethyl)-2,3,8,12b-tetrahydro-1H-3a,8-methanodibenzo[3,4:6,7]cyclohepta[1,2-c]pyrrole] | 22 | 300 | > 324 | 100 | 200 | > 324 | 200 | > 324 | 100 | 100 |  |  |  |  |  |  |  |  |  | 
CCN1CC2c3ccccc3C3CC2(C1)c1ccccc13 (stereo not shown) [Example 12, 2-Ethyl-2,3,8,12b-tetrahydro-1H-3a,8-methanodibenzo[3,4:6,7]cyclohepta[1,2-c]pyrrole] |  |  | 200 | 12 | 20 | 36 | 12 | 100 | 12 | 12 |  |  |  |  |  |  |  |  | 4.3 | 200
